We go through two compounds from US20060069132A1, “Azolecarboxamide herbicides” (priority 2004, published 2006).

The test system of one assay is barnyardgrass (ECHCG). The experiment in a line: Test J Compounds 2 and 6 alone and in combination with other herbicides, foliage spray. It is filed as in vivo, Echinochloa crus-galli. The settings on record: for ECHCG Obsd.: applied alone. Details: key to ECHCG Obsd.: percentage herbicidal effect (observed). The source says:
Colby's Equation was used to calculate the expected additive herbicidal effect of the mixtures of Compound 6 with Harmony® Extra (i.e. a 2:1 mixture by weight of thifensulfuron-methyl and tribenuron-methyl). Colby's Equation (Colby, S. R. “Calculating Synergistic and Antagonistic Responses of Herbicide Combinations,” Weeds, 15(1), pp 20-22 (1967)) calculates the expected additive effect of herbicidal mixtures, and for two active ingredients is of the form: Pa+b=Pa+Pb−(PaPb/100) wherein • Pa+b is the percentage effect of the mixture expected from additive contribution of the individual components, • Pa is the observed percentage effect of the first active ingredient at the same use rate as in the mixture, and • Pb is the observed percentage effect of the second active ingredient at the same use rate as in the mixture.
(§1) Seeds of test plants consisting of barnyardgrass (ECHCG; Echinochloa crus-galli (L.) Beauv.), blackgrass (ALOMY; Alopecurus myosuroides Huds.), Surinam grass (BRADC; Urochloa decumbens (Staph) R. D. Webster, previously named Brachiaria decumbens Stapf), cocklebur (XANST, Xanthium strumarium L.), corn (ZEAMD, Zea mays L. cv. ‘Pioneer 33G26’), large crabgrass (DIGSA, Digitaria sanguinalis (L.) Scop.), giant foxtail (SETFA, Setaria faberi Herrm.), lambsquarters (CHEAL, Chenopodium album L.), morningglory (IPOCO, Ipomoea coccinea L.), pigweed (AMARE, Amaranthus retroflexus L.), velvetleaf (ABUTH, Abutilon theophrasti Medik.) wheat (TRZAS, Triticum aestivum L. cv. ‘Recital’) and wild oat (AVEFA, Avena fatua L.) were planted in Redi-Earth® planting medium (Scotts Company, 14111 Scottslawn Road, Marysville, Ohio 43041) comprising spaghnum peat moss and vermiculite. Seeds of small-seeded species were planted about 1 cm deep; larger seeds were planted about 2.5 cm deep. Plants were grown in a greenhouse using supplemental lighting to maintain a photoperiod of about 14 hours; daytime and nighttime temperatures were about 24-30° C. and 22-25° C., respectively. […] Also listed in Table J are the expected effects for the mixtures calculated using Colby's Equation.

Another assay concerns cocklebur (XANST). Described as above. The settings on record: applied alone. The format is in vivo, Xanthium strumarium. Details: key: 0 = no effect, 100 = complete control.
Text: as §1, with “respectively. Balanced fertilizer was applied through the watering system.” for “respectively.”

The subject of a further assay is morningglory (IPOCO). The assay is described as above. The arrangement: key: 0 = no effect, 100 = complete control. To be noted: applied alone. The format is in vivo, Ipomoea coccinea.
Text: as §1, with “respectively. Balanced fertilizer was applied through the watering system.” for “respectively.”

The next assay concerns lambsquarters. The experiment in a line: Test F pre-/postemergence herbicide test. The format is in vivo, Chenopodium album. The source says: (§2) Seeds of plant species selected from annual blugrass (Poa annua L.), blackgrass (Alopecurus myosuroides Huds.), catchweed bedstraw (Gallium aparine L.), common chickweed (Stellaria media (L.) Vill./Cyr.), downy bromegrass (Bromus tectorum L.), green foxtail (Setaria viridis (L.) Beauv.), Italian ryegrass (Lolium multiflorum Lam.), kochia (Kochia scoparia (L.). Schrad.), lambsquarters (Chenopodium album L.), littleseed canarygrass (Phalaris minor Retz.), pigweed (Amaranthus retroflexus L.), Russian thistle (Salsola kali L. ssp. Ruthenica (Iljin) Soo), wild buckwheat (Polygonum convolvulus L.), wild mustard (Sinapis arvensis L.), wild oat (Avena fatua L.), windgrass (Apera spica-venti (L.) Beauv.), winter barley (Hordeum vulgare L.), and wheat (Triticum aestivum L.) were planted and treated preemergence with test chemicals formulated in a non-phytotoxic solvent mixture which included a surfactant.
(§3) At the same time, plants selected from these crop and weed species were treated with postemergence applications of some of the test chemicals formulated in the same manner. Plants ranged in height from 2 to 18 cm (1- to 4-leaf stage) for postemergence treatments. Treated plants and controls were maintained in a greenhouse for 12 to 14 days, after which time all species were compared to controls and visually evaluated. Plant response ratings, summarized in Table F, are based on a scale of 0 to 100 where 0 is no effect and 100 is complete control. A dash (-) response means no test result.

A further assay concerns littleseed canarygrass. The experiment in a line: Test F pre-/postemergence herbicide test. The format is in vivo, Phalaris minor.
Text: as §2, §3

The subject of another assay is Russian thistle. The experiment in a line: Test F pre-/postemergence herbicide test. It is filed as in vivo, Salsola kali.
Text: as §2, §3

Another assay concerns wild oat. The experiment in a line: Test F pre-/postemergence herbicide test. The format is in vivo, Avena fatua.
Text: as §2, §3

Take `CCn1nc(C(C)(C)C)cc1C(=O)Nc1cc(C(=O)N(C)C)ccc1F` [Compound 6, N-[5-[(dimethylamino)carbonyl]-2-fluorophenyl]-3-(1,1-dimethylethyl)-1-ethyl-1H-pyrazole-5-carboxamide]: the “ECHCG Obsd.” value with barnyardgrass (ECHCG) (62 g a.i./ha) was determined as 17; in the assay on barnyardgrass (ECHCG) (125 g a.i./ha) it was 63. For the same compound, the “observed effect of mixture compared with additive effect expected from Colby's Equation” value in the assay on barnyardgrass (ECHCG) (mixture with terbacil, barnyardgrass, foliage spray, 15 days after treatment) is “greater than additive”. The “XANST Obsd.” value in the assay on cocklebur (XANST) (62 g a.i./ha) was found to be 67; with cocklebur (XANST) (125 g a.i./ha), 63. For the same compound, the “IPOCO Obsd.” value with morningglory (IPOCO) (62 g a.i./ha) was 22; in the assay with morningglory (IPOCO) (125 g a.i./ha), 28.

On to `CCn1nc(C(C)(C)C)cc1C(=O)Nc1cc(C(=O)OC(C)C)c(F)cc1F` [Compound 248], for which the “Plant response rating (0-100), Lambsquarters” value with lambsquarters (Postemergence, 31 g ai/ha) came to 35; in the assay with lambsquarters (Postemergence, 62 g ai/ha), 60; in the assay with lambsquarters (Postemergence, 125 g ai/ha), 60; in the assay on lambsquarters (Postemergence, 250 g ai/ha), 60; in the assay with lambsquarters (Preemergence, 31 g ai/ha), 40; in the assay with lambsquarters (Preemergence, 62 g ai/ha) it was 40. For the same compound, the “Plant response rating (0-100), Lambsquarters” value came to 100 in the assay on lambsquarters (Preemergence, 125 g ai/ha) and 100 in the assay on lambsquarters (Preemergence, 250 g ai/ha). Besides, the “Plant response rating (0-100), Canarygrass” value worked out at 35 in the assay on littleseed canarygrass (Postemergence, 31 g ai/ha); 40 in the assay with littleseed canarygrass (Postemergence, 62 g ai/ha); 40 in the assay on littleseed canarygrass (Postemergence, 125 g ai/ha); 45 in the assay on littleseed canarygrass (Postemergence, 250 g ai/ha); 40 with littleseed canarygrass (Preemergence, 31 g ai/ha); 45 in the assay on littleseed canarygrass (Preemergence, 62 g ai/ha). In addition, the “Plant response rating (0-100), Canarygrass” value with littleseed canarygrass (Preemergence, 250 g ai/ha) was 75. Besides, the “Plant response rating (0-100), Thistle” value in the assay on Russian thistle (Postemergence, 31 g ai/ha) came out at 25; in the assay with Russian thistle (Postemergence, 62 g ai/ha) it was 30; with Russian thistle (Postemergence, 125 g ai/ha), 30; in the assay with Russian thistle (Postemergence, 250 g ai/ha) it was 40; with Russian thistle (Preemergence, 31 g ai/ha), 30; in the assay on Russian thistle (Preemergence, 62 g ai/ha), 30. Besides, the “Plant response rating (0-100), Thistle” value with Russian thistle (Preemergence, 125 g ai/ha) worked out at 30; in the assay on Russian thistle (Preemergence, 250 g ai/ha) it was 45. The “Plant response rating (0-100), Oat, Wild” value was determined as 45 in the assay with wild oat (Postemergence, 31 g ai/ha); 45 with wild oat (Postemergence, 62 g ai/ha); 60 in the assay with wild oat (Postemergence, 125 g ai/ha); 65 with wild oat (Postemergence, 250 g ai/ha); 40 in the assay on wild oat (Preemergence, 31 g ai/ha); 45 in the assay on wild oat (Preemergence, 62 g ai/ha). Further, the “Plant response rating (0-100), Oat, Wild” value turned out to be 50 in the assay on wild oat (Preemergence, 125 g ai/ha) and 65 in the assay with wild oat (Preemergence, 250 g ai/ha).
